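Dose response: 5 concentrations. Exposure: 48 h. Format: 96-well plates. Endpoint: linear interpolation; highest concentration if not reached. Abbreviation: GI50, concentration required for 50% inhibition of growth.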 Calls of active or inactive are those of the source. Cut-off read from the data, not from the text of the source: active = GI50 up to about 1.1 µM and inactive = higher.
Experiments:
Assay in all cases: inhibition of tumour cell growth, NCI panel, 48 h
786-0 = tested on: 786-0
A549 = tested on: A549
ACHN = tested on: ACHN
BT-549 = tested on: BT-549
CCRF-CEM = tested on: CCRF-CEM
COLO 205 = tested on: COLO 205
DU-145 = tested on: DU-145
EKVX = tested on: EKVX
HCC 2998 = tested on: HCC 2998
HCT-116 = tested on: HCT-116
HCT-15 = tested on: HCT-15
HOP-62 = tested on: HOP-62
HOP-92 = tested on: HOP-92
HT-29 = tested on: HT-29
Hs-578T = tested on: Hs-578T
IGROV-1 = tested on: IGROV-1
K562 = tested on: K562
KM12 = tested on: KM12
LOX IMVI = tested on: LOX IMVI
M14 = tested on: M14
MCF7 = tested on: MCF7
MDA-MB-231 = tested on: MDA-MB-231
MDA-MB-435 = tested on: MDA-MB-435
MDA-N = tested on: MDA-N
MOLT-4 = tested on: MOLT-4
Malme-3M = tested on: Malme-3M
NCI-H226 = tested on: NCI-H226
NCI-H23 = tested on: NCI-H23
NCI-H460 = tested on: NCI-H460
NCI-H522 = tested on: NCI-H522
NCI/ADR-RES = tested on: NCI/ADR-RES
OVCAR-3 = tested on: OVCAR-3
OVCAR-4 = tested on: OVCAR-4
OVCAR-5 = tested on: OVCAR-5
OVCAR-8 = tested on: OVCAR-8
PC-3 = tested on: PC-3
RPMI-8226 = tested on: RPMI-8226
SF-268 = tested on: SF-268
SF-295 = tested on: SF-295
SK-MEL-28 = tested on: SK-MEL-28
SK-MEL-2 = tested on: SK-MEL-2
SK-MEL-5 = tested on: SK-MEL-5
SK-OV-3 = tested on: SK-OV-3
SN12C = tested on: SN12C
SNB-19 = tested on: SNB-19
SR = tested on: SR
SW-620 = tested on: SW-620
T47D = tested on: T47D
TK-10 = tested on: TK-10
U-251 = tested on: U-251
UACC-62 = tested on: UACC-62
UO-31 = tested on: UO-31
A498 = tested on: A498
CAKI-1 = tested on: CAKI-1
RXF 393 = tested on: RXF 393
SNB-75 = tested on: SNB-75
UACC-257 = tested on: UACC-257

COc1ccc(-n2sc3ncc(C)cc3c2=O)cc1
GI50 (786-0): 17.3 µM (inactive) | GI50 (A549): 20.7 µM (inactive) | GI50 (ACHN): 18.3 µM (inactive) | GI50 (BT-549): 19.4 µM (inactive) | GI50 (CCRF-CEM): 10.6 µM (inactive) | GI50 (COLO 205): 16.1 µM (inactive) | GI50 (DU-145): 21.7 µM (inactive) | GI50 (EKVX): 18.3 µM (inactive) | GI50 (HCC 2998): 62.2 µM (inactive) | GI50 (HCT-116): 18.3 µM (inactive) | GI50 (HCT-15): 18.4 µM | GI50 (HOP-62): 18.2 µM (inactive) | GI50 (HOP-92): 19.9 µM (inactive) | GI50 (HT-29): 17.4 µM (inactive) | GI50 (Hs-578T): 30.6 µM (inactive) | GI50 (IGROV-1): 31.9 µM (inactive) | GI50 (K562): 39 µM (inactive) | GI50 (KM12): 16.1 µM (inactive) | GI50 (LOX IMVI): > 10 µM (inactive) | GI50 (M14): 18.7 µM (inactive) | GI50 (MCF7): 23.7 µM (inactive) | GI50 (MDA-MB-231): 17 µM (inactive) | GI50 (MDA-MB-435): 18.8 µM (inactive) | GI50 (MDA-N): 16.5 µM (inactive) | GI50 (MOLT-4): 29.3 µM (inactive) | GI50 (Malme-3M): 18.5 µM (inactive) | GI50 (NCI-H226): 26.2 µM (inactive) | GI50 (NCI-H23): 26.2 µM (inactive) | GI50 (NCI-H460): 86.3 µM (inactive) | GI50 (NCI-H522): 20.6 µM (inactive) | GI50 (NCI/ADR-RES): 26.5 µM (inactive) | GI50 (OVCAR-3): 16.9 µM (inactive) | GI50 (OVCAR-4): 33.4 µM (inactive) | GI50 (OVCAR-5): 20.1 µM (inactive) | GI50 (OVCAR-8): 18.2 µM (inactive) | GI50 (PC-3): 15.6 µM (inactive) | GI50 (RPMI-8226): 26.2 µM (inactive) | GI50 (SF-268): 20.9 µM (inactive) | GI50 (SF-295): 50.1 µM (inactive) | GI50 (SK-MEL-28): 24.2 µM (inactive) | GI50 (SK-MEL-2): 21.8 µM (inactive) | GI50 (SK-MEL-5): 13.2 µM (inactive) | GI50 (SK-OV-3): 39.8 µM (inactive) | GI50 (SN12C): 16.1 µM (inactive) | GI50 (SNB-19): > 100 µM (inactive) | GI50 (SR): 35.4 µM (inactive) | GI50 (SW-620): 33.8 µM (inactive) | GI50 (T47D): 17.5 µM (inactive) | GI50 (TK-10): 19.1 µM (inactive) | GI50 (U-251): 22.4 µM (inactive) | GI50 (UACC-62): 17.5 µM (inactive) | GI50 (UO-31): 17.6 µM (inactive)

CN(C)CCCn1c(Cc2ccccc2)nc2cc(C(F)(F)F)ccc21
GI50 (786-0): 19.1 µM (inactive) | GI50 (A498): 15 µM (inactive) | GI50 (A549): 14.7 µM (inactive) | GI50 (ACHN): 62.8 µM (inactive) | GI50 (BT-549): 29.2 µM (inactive) | GI50 (CAKI-1): 17.7 µM (inactive) | GI50 (CCRF-CEM): 19.4 µM (inactive) | GI50 (COLO 205): 16.1 µM (inactive) | GI50 (DU-145): 67.5 µM (inactive) | GI50 (EKVX): 30.1 µM (inactive) | GI50 (HCT-116): 18 µM (inactive) | GI50 (HCT-15): 24.8 µM | GI50 (HOP-62): 26.4 µM (inactive) | GI50 (HOP-92): 20 µM (inactive) | GI50 (HT-29): 20.7 µM (inactive) | GI50 (Hs-578T): 45.6 µM (inactive) | GI50 (IGROV-1): 30.2 µM (inactive) | GI50 (K562): 18.5 µM (inactive) | GI50 (KM12): 15.7 µM (inactive) | GI50 (LOX IMVI): 18 µM (inactive) | GI50 (M14): 15.5 µM (inactive) | GI50 (MCF7): 20.5 µM (inactive) | GI50 (MDA-MB-231): 22.4 µM (inactive) | GI50 (MDA-MB-435): 15.9 µM (inactive) | GI50 (MDA-N): 18.3 µM (inactive) | GI50 (MOLT-4): 19.8 µM (inactive) | GI50 (Malme-3M): 17.7 µM (inactive) | GI50 (NCI-H226): 40.3 µM (inactive) | GI50 (NCI-H23): 29.5 µM (inactive) | GI50 (NCI-H460): 19.6 µM (inactive) | GI50 (NCI-H522): 24.4 µM (inactive) | GI50 (NCI/ADR-RES): 65.6 µM (inactive) | GI50 (OVCAR-3): 27.9 µM (inactive) | GI50 (OVCAR-4): 18.6 µM (inactive) | GI50 (OVCAR-5): 78.7 µM (inactive) | GI50 (OVCAR-8): 39.7 µM (inactive) | GI50 (PC-3): 29 µM (inactive) | GI50 (RXF 393): 21.2 µM (inactive) | GI50 (SF-268): 53.8 µM (inactive) | GI50 (SF-295): 17.1 µM (inactive) | GI50 (SK-MEL-28): 19.1 µM (inactive) | GI50 (SK-MEL-2): 17.5 µM (inactive) | GI50 (SK-MEL-5): 17.3 µM (inactive) | GI50 (SK-OV-3): 23.5 µM (inactive) | GI50 (SN12C): 41.6 µM (inactive) | GI50 (SNB-19): 24.1 µM (inactive) | GI50 (SNB-75): 52.8 µM (inactive) | GI50 (SW-620): 26.1 µM (inactive) | GI50 (T47D): 19.9 µM (inactive) | GI50 (TK-10): 28.8 µM (inactive) | GI50 (U-251): 20 µM (inactive) | GI50 (UACC-257): 18.1 µM (inactive) | GI50 (UACC-62): 18.8 µM (inactive) | GI50 (UO-31): 1.91 µM (inactive)

Reference: ChEMBL document CHEMBL1201862, “PubChem BioAssay data set” (2004)
